# From patent US7482008B1, “Human T cell reactive feline protein (TRFP) isolated from house dust and uses therefor” (Merck Patent GmbH, priority 1989, dated 2009)
# B1: peptide ZXY: recombinant peptide: peptide Z, peptide X and peptide Y linked in this order (protein)
# chain: MGHHHHHHEFFFAVANGNELLLDLSLTKVNATEPERKRDVDLFLTGTPDEYVEQVAQYKALPVVLENARILKNCVDAKMTEEDKE
# Experiments:
# [1] = tested on: T cell; test: T cell reactivity of dimeric recombinant chain 1 and alkali treated TRFP; type: cell-based
# [2] = tested on: IgE; test: IgE binding of dimeric recombinant chain 1 and alkali treated TRFP
# [3] = tested on: human IgE; test: SDS/PAGE Western immunoblot of human IgE binding, plasma from patient #417; conditions: patient #417 plasma
# Protocol: Western immunoblot analysis of the peptides produced in above was performed. The concentration of all protein samples (e.g., TRFP, recombinant chain 1 of TRFP, recombinant chain 2 of TRFP, peptide XYZ, peptide XZY, peptide YXZ, peptide YZX, peptide ZXY and peptide ZYX) for gel electrophoresis was determined by the BCA method (Pierce Co.). All protein samples were loaded on the gel at 5 μg/lane except TRFP at 10 μg/lane. Protein separation was carried out on a 15% acrylamide gel, and transfer was performed by electroblotting at 1.5 Amps for 1.5 hours onto nitrocellulose paper (Schleicher and Schuell, 0.1 microns) in a Hoeffer apparatus according to the protocol of Towbin, H., T. Stachlin, and J. Gordon, PNAS 76:4350 (1979). Proteins were rinsed in blot solution (25 mM Tris-HCl 7.5, 0.171 M NaCl and 0.5 ml/liter Tween 20). The blot was then blocked for one hour in blocking solution (1% milk in blot solution). Plasma from patient #417, used as a primary antibody source, was diluted in blocking solution to 10% and preabsorbed for 1.5 hours with unused nitrocellulose (2 cm×15 cm). The prepared human plasma was then incubated overnight on an orbital shaker with the protein blot section of interest. Following the first antibody incubation the blot section was washed three times, each wash involved a fifteen minute incubation in blot solution. The second antibody, specific for human IgE (biotinylated goat anti-human IgE, KPL Inc.), was diluted 1:2500 in blot solution and the incubation proceeded for two hours. Excess second antibody was subsequently removed by three 15 minute incubations with blot solution. ^125I Iodinated streptavidin (Amersham) was diluted 1:2500 in blot solution and incubated with blots for 1 hour, at 2 μCi in a 50 ml incubation volume. Blot sections were then washed with blot solution until the detectable radioactivity in the waste solution decreased to background levels. The blot section was then wrapped in saran wrap and exposed to film overnight with a cronex intensifying screen at −80° C.
# [4] = tested on: human IgE; test: ELISA of human IgE binding, plasma from patient #669; conditions: patient #669 plasma
# Protocol: Corning assay plates (#25882-96) were coated with 10 μg/ml of each coating antigen (i.e., TRFP, chain 1 (recombinant chain 1 of TRFP), chain 2 (recombinant chain 2 of TRFP), peptide XYZ, peptide XZY, peptide YXZ, peptide YZX, peptide ZXY and peptide ZYX) listed in FIG. 34 at 50 μl/well and incubated overnight at 4° C. The coating antigens were removed and the wells were blocked with 0.5% gelatin in PBS, 200 μl/well for 2 hours at room temperature. Plasma from patient #669 was serially diluted with PBS-Tween 20 (PBS with 0.05% nonionic detergent Tween-20 Sigma, St. Louis Mo.) and 100 μl/well was added and incubated overnight at 4° C. (plasma dilutions are tested in duplicate). The second antibody (biotinylated goat anti-Human IgE, 1:1000, Kirkegaard & Perry Laboratories Inc. Gaithersburg, Md.), was added at 100 μl/well for one hour at room temperature. This solution was removed and streptavidin-HRPO, 1:10,000 (Southern Biotechnology Associates, Inc., Birmingham, Ala.) was then added at 100 μl/well for one hour at room temperature (all wells were washed three times with PBS-Tween between each incubation step). TMB Membrane Peroxidase Substrate system (Kirkegaard & Perry Laboratories) was freshly mixed, and added at 100 μl/well. The color was allowed to develop for 2-5 minutes. The reaction was stopped by the addition of 100 μl/well of 1M phosphoric acid. Plates were read on a Microplate EL 310 Autoreader (Biotek Instruments, Winooski, Vt.) with a 450 nm filter. The absorbance levels of duplicate wells were averaged.
Molecule,T cell reactivity [1],IgE binding [2],"IgE binding, Western immunoblot [3]","IgE binding, ELISA [4]"
recombinant chain 1 of TRFP in a dimeric form: recombinant chain 1 of TRFP in a dimeric form,maintains T cell reactivity,markedly reduced IgE binding,,
mild alkali treated TRFP: mild alkali treated TRFP,maintains T cell reactivity,markedly reduced IgE binding,,
B1,,,show IgE binding,clear reactivity with IgE
